Source: PMC2225439, “Amyloid as a Depot for the Formulation of Long-Acting Drugs” (PLoS Biology, 2008)

Columns and labels:
[1] = Thio T binding (amyloid fibril formation); type: physicochemical; parameters: key to Thio T Binding: b, binding; n, not binding; conditions: 1 mg/ml in 5% D-mannitol, 0.01% sodium azide, room temperature without stirring, monitored daily over 21 d; fluorescence ex 450 nm / em 482 nm; three independent experiments
Procedure: The kinetics of fibril formation in vitro is generally a slow process over several days or weeks, and can be monitored by the increase of fluorescence intensity of the cross-β-sheet–sensitive dye, Thio T [15]. Thio T fluorescence is thereby insignificant during the initial incubation period of amyloid aggregation due to the nonexistence of Thio T–sensitive β-sheet aggregates. After the initial phase, a time-dependent increase of fluorescence intensity is observed until a maximum intensity is reached, at which time maximal fibril formation has occurred. […] For the Thio T binding studies, all GnRH analogs were incubated at room temperature at a concentration of 1 mg/ml in 5% D-mannitol, conditions identical to the formulation used in the animal experiments. In addition, 0.01% sodium azide was added. The Thio T fluorescence was monitored daily for all analogs over a period of 21 d (Figure 1).
(§1) GnRH analogs were dissolved in a glass tube in 1 ml of 5% D-mannitol and 0.01% sodium azide at a concentration of 1 mg/ml. The GnRH analogs were then incubated at room temperature without stirring. The fibril formation was monitored by EM, CR, and time-resolved by Thio T binding studies. Three independent experiments were performed for each sample.
A 10-μl aliquot of peptide sample was diluted into 500 μl of water with 5% D-mannitol containing 0.01% (w/v) sodium azide. The solution was mixed with 10 μl of 1 mM Thio T prepared in the same solution. Fluorescence was measured immediately after addition of Thio T. The experiment was measured on a spectrofluorimeter (Photon Technology International) with excitation at 450 nm and emission at 482 nm. The fluorescence intensity at 482 nm was plotted against incubation time (day). A rectangular 10-mm quartz microcuvette was used. Three independent experiments were performed for each sample.

Congo red (CR) binding = type: physicochemical; parameters: key to Congo Red: b, binding; n, not binding; conditions: analogs incubated for 30 d; for Congo Red: 1 mg/ml in 5% D-mannitol, 0.01% sodium azide, room temperature, UV 300–700 nm and by eye, three independent experiments
Procedure: To confirm amyloid formation by GnRH analogs, CR binding was measured. CR, like Thio T, is a dye routinely used to detect β-sheet–rich assemblies. CR binding can be measured by the “red shift” change of its absorption maximum from 490 to 540 nm, by an increase of the dye's molar absorptivity, and in favorable cases by eye. All three types of measurements were performed with GnRH analogs incubated for 30 d. […] However, five short-acting GnRH analogs, i.e., S3, S4, S6, S10, and S11, bind CR, showing that some short-acting GnRH-analogs are able to form amyloids after prolonged incubation (see also below). In contrast to short-acting analogs, all long-acting analogs bind CR.
as §1
A 5-μl aliquot of peptide sample was mixed with 80 μl of PBS buffer containing 10% ethanol. Then 15 μl of a 100 μM CR solution (filtered through 0.2-μm filter) in PBS containing 10% ethanol was added. After mixing, UV was measured from 300–700 nm. For the measurement of the CR-only spectrum, 15 μl of CR solution with 85 μl of PBS containing 10% ethanol was prepared. As a control, a 5-μl aliquot of GnRH analog mixed with 95 μl of PBS containing 10% ethanol was measured. Three independent experiments were performed for each sample. In addition to the UV measurements, pictures of the cuvette containing the peptide sample and CR were taken to visually show the CR binding to the amyloids.

[2] = Electron microscopy of negative-stained samples; type: physicochemical; parameters: key to EM^8 / EM^30: fib, fibrils; nfib, no fibrils; conditions: for EM, formation of amyloid-like fibrils at day 30 (in words): 30 d of incubation; for EM^8: electron microscopy at day 8 of incubation; for EM^8 / EM^30: 1 mg/ml in 5% D-mannitol, room temperature, at least two independent experiments; for EM^30: electron microscopy at day 30 of incubation
Procedure: To formally determine the formation of amyloid fibrils by GnRH analogs and to characterize other possible assemblies present in the sample, EM was done on all of the GnRH analogs. Since the EM analysis is for a qualitative interpretation only, amyloid fibrils and other small aggregates might be observed under the electron microscope even if only a minority of the sample forms fibrils. Samples were studied after 8 and 30 d of incubation. […] The fibrils show a wide variety of morphologies, comprising helical ultrastructures with varying degrees of lateral association. Furthermore, the fibrils are composed of one or more filaments, resulting in overall diameters ranging from approximately 6 to 12 nm. No oligomers are observed for the long-acting compounds at day 8 or at day 30 (Figures 2 and S2).
as §1
A 5-μl aliquot of peptide sample was diluted into 50 μl of water to a peptide concentration of approximately 50 μM, spotted on a glow-discharged, carbon-coated Formvar grid (Electron Microscopy Sciences), incubated for 5 min, washed with distilled water, and then stained with 1% (w/v) aqueous uranyl formate solution. Uranyl formate solutions were filtered through 0.2-μm sterile syringe filters (Corning) before use. EM analysis was performed using a JEOL JEM-100CXII electron microscope at 80 kV with nominal magnifications between 36,000 and 72,000. Images were recorded digitally by using the SIS Megaview III imaging system. At least two independent experiments were carried out for each sample.

[3] = Peptide release from amyloid (dialysis experiment); conditions: for KD: dissociation constant of the aggregates = final monomer concentration, 200 μl of 30-d-old analog dialyzed against 4 ml 5% D-mannitol, fluorescence ex 280 nm
Procedure: Although amyloid fibrils are very stable, they must follow thermodynamic equilibrium conditions between fibril and monomer. […] A total of 200 μl of 30-d-old GnRH analog (in) was dialyzed 4 ml of 5% D-mannitol (out). A 3.5-kDa cutoff, which is twice the size of the peptides studied, was chosen to ensure that the released particles are most likely monomeric. The peptide release and the remaining aggregates were monitored by fluorescence over 35 d at room temperature.
A 200-μl aliquot of aged GnRH in solution conditions given above was transferred into a 0.6-ml Eppendorf tube with a hole in the cap. To study the effect of heparin on peptide release, a mixture of hormone analog and heparin (1:1 v/v) was incubated overnight in parallel with a half-diluted peptide fibril sample in 5% D-mannitol and 0.01% sodium azide. The hole in the cap of the Eppendorf tube was sealed with a 3.5-kDa molecular weight cutoff (MWCO) membrane. Next, the Eppendorf tube was inserted upside down into a 15-ml Falcon tube containing 4 ml of 5% D-mannitol in water and 0.01% sodium azide. Care was taken to make sure that the membrane was exposed to solutions both in and outside and that any bubbles at the membrane interface were removed. The tubes were then incubated at room temperature. To measure the remaining peptide concentration inside the 0.6-ml Eppendorf tube, a 5-μl aliquot was diluted into 500 μl water with 5% D-mannitol, 0.01% sodium azide, and the fluorescence was measured with excitation at 280 nm and emission in the range of 290–500 nm. The excitation slit width was 2 nm, and emission slit width was 11 nm. To determine the peptide concentration outside the membrane in the 15-ml tube, an aliquot of 250 μl of solution was taken from the releasing medium, diluted into 500 μl final volume by 5% D-mannitol, 0.01% sodium azide, and fluorescence was measured. Following spectra recording, the dialysis system was reassembled as described above. […] The normalized intensity maxima from inside and outside the membrane were plotted as a function of time and fit by an exponential function to extract the half-life of the fibrils and the K off, respectively. […] The extracted half-life, t 1/2, is the time taken, during which the fluorescence signal inside the 0.6-ml Eppendorf tube drops by 50%.

[4] = test system: plasma luteinizing hormone (LH) levels; conditions: cited from earlier work; for Action: duration of action class as listed in Table 1, castrated male rat assay, ref Tables S1 and S2
Description: Table 1 Biochemical and Biophysical Properties of Aggregates By GnRH-Analogs | column: Action || Supplement pbio.0060017.st001.doc, table 1: Table S1: Short acting GnRH analogs with their duration of action | column: Duration of action^b || Supplement pbio.0060017.st002.doc, table 1: Table S2: Long acting GnRH analogs with their duration of action | column: Duration of action^b || (+ 2 further places)

[5] = half-life of fibrils: time in which fluorescence inside drops by 50%, dialysis of 30-d-old analog, 3.5-kDa MWCO, 5% D-mannitol, room temperature, 35 d, exponential fit, 2 d = intrinsic diffusion of monomer
[6] = dialysis, 3.5-kDa cutoff, room temperature, 35 d
[7] = 3.5-kDa MWCO, room temperature, 35 d

Compound | Thio T Binding [1] | Congo Red (Congo red (CR) binding) | EM, formation of amyloid-like fibrils at day 30 (in words) [2] | EM^8 [2] | EM^30 [2] | t1/2 [3, 5] | Action [4] | CR binding (in words) (Congo red (CR) binding) | EM, formation of amyloid-like fibrils at day 8 (in words) ([2]; 8 d of incubation) | stability of fibrils from release profile (in words) ([3]; dialysis of 30-d-old samples, 35 d) | K off [3, 6] | t1/2 [3, 6] | KD [3, 7] [nM] | Koff ([3]; monomer release from aggregates, dialysis of 30-d-old analog, 3.5-kDa MWCO, 5% D-mannitol, room temperature, 35 d, exponential fit) | time to reach equilibrium of fluorescence inside and outside of the membrane ([3]; dialysis, 3.5-kDa cutoff, room temperature) [days] | duration of action ([4]; ref [29],[30])
Ac-DNal-DCpa-DPal-Ser-D,LAgl(Me,acetylamino)benzoyl-DAph(Ac)-Leu-ILys-Pro-DAla-NH2 [S9] | n | n | do not form any detectable amyloid-like fibrils | nfib | nfib | 48 h | very short |  |  |  |  |  |  |  |  | 
des-Ac-[DAph(CONHOCH3)6]Peg-degarelix [S10] | b | b | form amyloid-like fibrils | fib | fib | ≫35 day |  | bind CR | form amyloid-like fibrils | form very stable amyloids with very little peptide release | < 2 × 10^−7 S^−1 | over 35 d | 1000 | ≪2 × 10^−7 s^−1 |  | 
Ac-Agl(2-Napht)-DCpa-DPal-Ser-Aph(Ac)-DAph(Ac)-Leu-ILys-Pro-DAla-NH2 [L21] | b | b |  | fib | fib | 840 h | intermediate |  |  |  |  |  | 2000 |  |  | 
Ac-DNal-DCpa-DPal-Ser-Arg-DGlu(AA)-Leu-Arg-Pro-DAla-NH2 [S7, reference compound] | n | n | do not form any detectable amyloid-like fibrils | nfib | nfib | 48 h |  |  |  |  |  |  |  |  |  | 
Ac-Agl(Me,2-Napht)-DCpa-DPal-Ser-Aph(Ac)-DAph(Ac)-Leu-ILys-Pro-DAla-NH2 [S8] | n | n | do not form any detectable amyloid-like fibrils | nfib | nfib | 48 h | very short |  |  |  |  |  |  |  |  | 
CC(C)C[C@H](NC(=O)CNC(=O)[C@H](Cc1ccc(O)cc1)NC(=O)[C@H](CO)NC(=O)[C@H](Cc1c[nH]c2ccccc12)NC(=O)[C@H](Cc1c[nH]cn1)NC(=O)[C@@H]1CCC(=O)N1)C(=O)N[C@@H](CCCNC(=N)N)C(=O)N1CCC[C@H]1C(=O)NCC(N)=O [S12, reference compound] | n | n | do not form any detectable amyloid-like fibrils | nfib | nfib | 48 h |  |  |  |  | approximately 4 × 10^−6 S^−1 | approximately 2 d |  |  | ≤ 3 | a few hours
Ac-DNal-DCpa-DPal-Ser-Aph(Ac)-DAph(Ac)-Leu-Agl(Me,IβAla)-Pro-DAla-NH2 [L22] | b | b |  | fib | fib | 672 h | medium |  |  |  |  |  | 7000 |  |  | 
